According to ChEMBL document CHEMBL1909046, “DrugMatrix in vitro pharmacology data”:

What was measured:
[1] = DRUGMATRIX: GABAA, Muscimol, Central radioligand binding (ligand: [3H] Muscimol); format: cell membranes, Rattus norvegicus, Wistar, Brain, Membrane; conditions: Not Active = under 50% inhibition at 10 µM
[2] = target: Beta-1 adrenergic receptor (Homo sapiens, UniProt P08588); experiment: DRUGMATRIX: Adrenergic beta1 radioligand binding (ligand: [125I] Cyanopindolol); format: cell membranes, CHO-K1, Membrane; conditions: cho-k1; Not Active = under 50% inhibition at 10 µM
Beta-1 adrenergic receptor, sequence (P08588 whole entry): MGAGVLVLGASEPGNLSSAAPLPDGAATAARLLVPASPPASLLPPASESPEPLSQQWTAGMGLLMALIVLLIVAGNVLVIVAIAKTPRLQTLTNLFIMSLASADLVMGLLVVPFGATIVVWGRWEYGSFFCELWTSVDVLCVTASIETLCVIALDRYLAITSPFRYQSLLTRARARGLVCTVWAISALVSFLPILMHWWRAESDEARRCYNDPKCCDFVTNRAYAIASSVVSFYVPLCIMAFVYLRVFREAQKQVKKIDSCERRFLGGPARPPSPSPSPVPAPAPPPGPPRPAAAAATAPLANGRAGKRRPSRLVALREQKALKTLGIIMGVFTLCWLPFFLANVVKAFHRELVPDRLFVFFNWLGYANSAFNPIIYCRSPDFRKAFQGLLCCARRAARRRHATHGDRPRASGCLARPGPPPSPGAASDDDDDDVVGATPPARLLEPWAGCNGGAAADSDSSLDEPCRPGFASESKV

[3] = DRUGMATRIX: Leukotriene, BLT (LTB4) radioligand binding (ligand: [3H]LTB4); format: cell membranes, Membrane; conditions: u-937; Not Active = under 50% inhibition at 10 µM
[4] = target: T1, Endothelin-1 receptor (Homo sapiens, UniProt P25101); format: cell membranes, Membrane; conditions: cho-k1; note: in other assays of this panel Not Active means under 50% inhibition at 10 µM
T1 sequence (P25101 whole entry): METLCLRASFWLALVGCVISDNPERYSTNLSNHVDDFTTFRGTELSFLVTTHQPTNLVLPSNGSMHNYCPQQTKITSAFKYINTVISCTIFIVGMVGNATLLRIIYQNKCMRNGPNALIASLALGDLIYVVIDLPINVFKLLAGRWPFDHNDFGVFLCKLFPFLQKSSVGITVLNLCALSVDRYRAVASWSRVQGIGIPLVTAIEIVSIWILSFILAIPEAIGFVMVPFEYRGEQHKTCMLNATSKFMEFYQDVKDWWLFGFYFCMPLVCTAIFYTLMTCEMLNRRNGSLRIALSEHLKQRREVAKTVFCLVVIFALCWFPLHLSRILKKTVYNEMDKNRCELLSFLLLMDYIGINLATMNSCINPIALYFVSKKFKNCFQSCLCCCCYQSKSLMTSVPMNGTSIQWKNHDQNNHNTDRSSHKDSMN

[5] = target: Mitogen-activated protein kinase 14 (Homo sapiens, UniProt Q16539); design: species or system Escherichia coli;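 note: inhibition of p38alpha enzyme activity in a biochemical kinase assay, with myelin basic protein serving as substrate; in other assays of this panel Not Active means under 50% inhibition at 10 µM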
Mitogen-activated protein kinase 14, sequence (Q16539 whole entry): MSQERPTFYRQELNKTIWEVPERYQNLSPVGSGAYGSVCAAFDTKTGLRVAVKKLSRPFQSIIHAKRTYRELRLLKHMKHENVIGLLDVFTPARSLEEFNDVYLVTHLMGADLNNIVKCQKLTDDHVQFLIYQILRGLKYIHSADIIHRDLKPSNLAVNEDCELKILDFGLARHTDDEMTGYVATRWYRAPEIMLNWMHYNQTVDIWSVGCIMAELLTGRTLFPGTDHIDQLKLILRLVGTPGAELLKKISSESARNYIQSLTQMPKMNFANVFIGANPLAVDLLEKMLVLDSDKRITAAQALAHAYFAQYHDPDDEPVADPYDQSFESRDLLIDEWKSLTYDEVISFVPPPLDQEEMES

[6] = target: Acetylcholinesterase (Homo sapiens, UniProt P22303); experiment: DRUGMATRIX: Acetylcholinesterase enzyme inhibition (substrate: acetylthiocholine); format: cell-based, HEK293; conditions: hek293; Not Active = under 50% inhibition at 10 µM
Acetylcholinesterase, sequence (P22303 whole entry): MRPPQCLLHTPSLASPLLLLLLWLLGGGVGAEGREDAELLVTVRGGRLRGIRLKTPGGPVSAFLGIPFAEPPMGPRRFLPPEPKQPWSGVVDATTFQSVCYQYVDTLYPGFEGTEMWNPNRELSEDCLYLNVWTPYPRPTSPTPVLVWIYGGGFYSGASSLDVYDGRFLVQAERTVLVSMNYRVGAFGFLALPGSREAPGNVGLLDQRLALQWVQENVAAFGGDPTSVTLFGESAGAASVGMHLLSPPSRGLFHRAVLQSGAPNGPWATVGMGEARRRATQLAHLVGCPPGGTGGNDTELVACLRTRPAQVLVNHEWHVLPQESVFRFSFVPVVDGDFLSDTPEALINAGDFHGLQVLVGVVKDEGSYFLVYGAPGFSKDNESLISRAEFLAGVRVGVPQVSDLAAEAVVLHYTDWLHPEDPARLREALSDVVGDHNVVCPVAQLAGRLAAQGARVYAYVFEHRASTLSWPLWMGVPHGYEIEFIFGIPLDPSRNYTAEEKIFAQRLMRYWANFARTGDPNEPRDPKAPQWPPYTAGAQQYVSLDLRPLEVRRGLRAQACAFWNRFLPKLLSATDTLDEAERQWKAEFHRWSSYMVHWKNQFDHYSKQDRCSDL

[7] = target: T2, Angiotensin-converting enzyme (Oryctolagus cuniculus, UniProt P12822); experiment: biochemical; format: tissue-based, Lung;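 note: enzymatic inhibition of angiotensin-converting enzyme measured with FAPGG as the substrate; in other assays of this panel Not Active means under 50% inhibition at 10 µM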
T2 sequence (P12822 whole entry): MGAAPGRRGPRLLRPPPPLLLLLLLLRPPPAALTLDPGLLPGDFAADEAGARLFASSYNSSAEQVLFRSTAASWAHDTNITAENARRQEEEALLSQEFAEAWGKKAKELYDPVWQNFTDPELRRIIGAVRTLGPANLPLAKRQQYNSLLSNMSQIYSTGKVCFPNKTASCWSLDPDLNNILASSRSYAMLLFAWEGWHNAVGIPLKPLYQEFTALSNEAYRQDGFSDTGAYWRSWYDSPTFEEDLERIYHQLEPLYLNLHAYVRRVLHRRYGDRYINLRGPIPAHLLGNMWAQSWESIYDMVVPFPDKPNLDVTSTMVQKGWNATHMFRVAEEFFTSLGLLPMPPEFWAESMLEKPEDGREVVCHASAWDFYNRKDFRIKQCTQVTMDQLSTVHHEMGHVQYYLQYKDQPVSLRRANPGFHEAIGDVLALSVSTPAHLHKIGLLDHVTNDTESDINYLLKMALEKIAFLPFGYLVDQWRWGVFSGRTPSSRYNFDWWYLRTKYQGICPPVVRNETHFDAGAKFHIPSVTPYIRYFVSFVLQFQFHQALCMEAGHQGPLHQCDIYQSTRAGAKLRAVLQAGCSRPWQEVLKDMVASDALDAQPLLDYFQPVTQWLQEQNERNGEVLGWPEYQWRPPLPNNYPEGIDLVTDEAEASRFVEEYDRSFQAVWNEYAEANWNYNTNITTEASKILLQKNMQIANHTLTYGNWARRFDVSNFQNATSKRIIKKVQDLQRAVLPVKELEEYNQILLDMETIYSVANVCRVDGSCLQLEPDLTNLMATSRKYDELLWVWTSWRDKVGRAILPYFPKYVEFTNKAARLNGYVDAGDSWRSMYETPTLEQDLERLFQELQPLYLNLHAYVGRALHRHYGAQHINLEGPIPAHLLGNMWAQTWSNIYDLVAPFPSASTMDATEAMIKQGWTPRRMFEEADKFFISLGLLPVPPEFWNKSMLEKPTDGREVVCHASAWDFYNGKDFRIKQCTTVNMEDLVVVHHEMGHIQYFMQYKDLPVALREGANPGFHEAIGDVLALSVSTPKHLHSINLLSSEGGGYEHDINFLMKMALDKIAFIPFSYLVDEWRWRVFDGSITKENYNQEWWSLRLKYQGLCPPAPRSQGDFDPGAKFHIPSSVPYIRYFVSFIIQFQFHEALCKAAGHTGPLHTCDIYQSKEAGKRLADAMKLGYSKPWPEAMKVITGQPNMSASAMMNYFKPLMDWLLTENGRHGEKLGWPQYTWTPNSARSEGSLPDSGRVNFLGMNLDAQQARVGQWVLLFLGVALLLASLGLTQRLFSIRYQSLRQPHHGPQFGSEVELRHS

Molecule | IC50 [1] | Ki [1] | IC50 [2] | IC50 [3] | Ki [3] | IC50 [4] | IC50 [5] | IC50 [6] | IC50 [7] | Ki [2] | Ki [4] | Ki [5] | Ki [6] | Ki [7] | IC50 ([7]; read-out: IC50) [nM]
COc1ccc(Cl)cc1C(=O)NCCc1ccc(S(=O)(=O)NC(=O)NC2CCCCC2)cc1 [GLYBURIDE] | Not Active | Not Active | Not Active | Not Active | Not Active | Not Active | Not Active | Not Active | Not Active |  |  |  |  |  | 
CHROMIC CHLORIDE | Not Active | Not Active | Not Active | Not Active | Not Active | Not Active | Not Active | Not Active | Not Active | Not Active | Not Active | Not Active | Not Active | Not Active | 
CCN1C[C@]2(COC)[C@H](O)C[C@H](OC)[C@@]34[C@@H]5C[C@@]6(O)[C@H](OC(=O)c7ccccc7)[C@@H]5[C@@](OC(C)=O)([C@@H]([C@H](OC)[C@H]23)[C@@H]14)[C@@H](O)[C@@H]6OC [ACONITINE] | Not Active | Not Active | Not Active | Not Active | Not Active | Not Active | Not Active | Not Active | Not Active |  |  |  |  |  | 
O=C(O)CCc1nc(-c2ccccc2)c(-c2ccccc2)o1 [OXAPROZIN] | Not Active | Not Active | Not Active | Not Active | Not Active | Not Active | Not Active | Not Active | Not Active |  |  |  |  |  | 
Cc1ccnc2c1NC(=O)c1cccnc1N2C1CC1 [NEVIRAPINE] | Not Active | Not Active | Not Active | Not Active | Not Active | Not Active | Not Active | Not Active | Not Active |  |  |  |  |  | 
Clc1cc(Cl)c(OCC#CI)cc1Cl [HALOPROGIN] | Not Active | Not Active | Not Active | Not Active | Not Active | Not Active | Not Active | Not Active | Not Active |  |  |  |  |  | 
COc1ccccc1OCCNCC(O)COc1cccc2[nH]c3ccccc3c12 (stereo not given) [CARVEDILOL] | Not Active | Not Active |  | Not Active | Not Active | Not Active | Not Active | Not Active | Not Active |  |  |  |  |  | 
CCN1CCN(c2cc3c(cc2F)c(=O)c(C(=O)O)cn3C2CC2)CC1 [ENROFLOXACIN] | Not Active | Not Active | Not Active | Not Active | Not Active | Not Active | Not Active | Not Active | Not Active |  |  |  |  |  | 
POVIDONE | Not Active | Not Active | Not Active | Not Active | Not Active | Not Active | Not Active | Not Active | Not Active | Not Active | Not Active | Not Active | Not Active | Not Active | 
C=C(Cl)Cl [1,1-DICHLOROETHENE] | Not Active | Not Active | Not Active | Not Active | Not Active | Not Active | Not Active | Not Active | Not Active |  |  |  |  |  | 
CC(=O)[C@]1(O)Cc2c(O)c3c(c(O)c2[C@@H](O[C@H]2C[C@H](N)[C@H](O)[C@H](C)O2)C1)C(=O)c1ccccc1C3=O [IDARUBICIN] | Not Active | Not Active | Not Active | Not Active | Not Active | Not Active | Not Active | Not Active | Not Active |  |  |  |  |  | 
NC(=O)CN1CCCC1=O | Not Active | Not Active | Not Active | Not Active | Not Active | Not Active | Not Active | Not Active | Not Active |  |  |  |  |  | 
CO[C@H]1O[C@@H]2O[C@@]3(C)CC[C@H]4[C@H](C)CC[C@@H]([C@H]1C)[C@@]24OO3 | Not Active | Not Active | Not Active | Not Active | Not Active | Not Active | Not Active | Not Active | Not Active |  |  |  |  |  | 
CC12CCC(CC1)C(C)(C)O2 [EUCALYPTOL] | Not Active | Not Active | Not Active | Not Active | Not Active | Not Active | Not Active | Not Active | Not Active |  |  |  |  |  | 
C[N+](C)(C)CCOC(N)=O.[Cl-] [CARBACHOL] | Not Active | Not Active | Not Active | Not Active | Not Active | Not Active | Not Active | Not Active | Not Active |  |  |  |  |  | 
NS(=O)(=O)c1cc(C(=O)O)c(NCc2ccco2)cc1Cl [FUROSEMIDE] | Not Active | Not Active | Not Active | Not Active | Not Active | Not Active | Not Active | Not Active | Not Active |  |  |  |  |  | 
CC(C)NCC(O)COc1ccc(CC(N)=O)cc1 (stereo not given) [ATENOLOL] | Not Active | Not Active |  | Not Active | Not Active | Not Active | Not Active | Not Active | Not Active |  |  |  |  |  | 
Oc1ncnc2[nH]ncc12 [ALLOPURINOL] | Not Active | Not Active | Not Active | Not Active | Not Active | Not Active | Not Active | Not Active | Not Active |  |  |  |  |  | 
NCC(CC(=O)O)c1ccc(Cl)cc1 (stereo not given) [BACLOFEN] | Not Active | Not Active | Not Active | Not Active | Not Active | Not Active | Not Active | Not Active | Not Active |  |  |  |  |  | 
Cc1c(N)nc([C@H](CC(N)=O)NC[C@H](N)C(N)=O)nc1C(=O)N[C@H](C(=O)N[C@H](C)[C@@H](O)[C@H](C)C(=O)N[C@H](C(=O)NCCc1nc(-c2nc(C(=O)NCCC[S+](C)C)cs2)cs1)[C@@H](C)O)[C@@H](O[C@@H]1O[C@@H](CO)[C@@H](O)[C@H](O)[C@@H]1O[C@H]1O[C@H](CO)[C@@H](O)[C@H](OC(N)=O)[C@@H]1O)c1c[nH]cn1.[Br-] [BLEOMYCIN A2] | Not Active | Not Active |  | Not Active | Not Active | Not Active | Not Active | Not Active |  |  |  |  |  |  | 588
CCN(CCO)CCCC(C)Nc1ccnc2cc(Cl)ccc12 (stereo not given) [HYDROXYCHLOROQUINE] | Not Active | Not Active |  | Not Active | Not Active | Not Active | Not Active | Not Active | Not Active |  |  |  |  |  | 
